From patent US8962608B2, “Cycloalkylnitrile pyrazole carboxamides as janus kinase inhibitors” (Merck Sharp & Dohme Corp., priority 2011, dated 2015)

Tests used:
[1] = target: JAK1 (recombinant purified GST-tagged catalytic domain) (Homo sapiens (Human), UniProt P23458); assay: biochemical;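 further: biochemical assay with HTRF read-out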
[2] = target: JAK2 (recombinant purified GST-tagged catalytic domain) (Homo sapiens (Human), UniProt O60674); assay: biochemical;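 further: biochemical JAK kinase assay with HTRF detection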
JAK2 (recombinant purified GST-tagged catalytic domain), sequence (O60674 849-1124): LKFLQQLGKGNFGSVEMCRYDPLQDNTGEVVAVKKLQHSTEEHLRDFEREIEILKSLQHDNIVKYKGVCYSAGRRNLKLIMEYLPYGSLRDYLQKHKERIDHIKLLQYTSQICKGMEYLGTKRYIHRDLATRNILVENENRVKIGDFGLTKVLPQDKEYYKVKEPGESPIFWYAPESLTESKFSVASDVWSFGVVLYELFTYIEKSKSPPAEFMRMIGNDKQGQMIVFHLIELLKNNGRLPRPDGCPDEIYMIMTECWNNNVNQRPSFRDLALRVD

JAK1 (recombinant purified GST-tagged catalytic domain), sequence (P23458 875-1153): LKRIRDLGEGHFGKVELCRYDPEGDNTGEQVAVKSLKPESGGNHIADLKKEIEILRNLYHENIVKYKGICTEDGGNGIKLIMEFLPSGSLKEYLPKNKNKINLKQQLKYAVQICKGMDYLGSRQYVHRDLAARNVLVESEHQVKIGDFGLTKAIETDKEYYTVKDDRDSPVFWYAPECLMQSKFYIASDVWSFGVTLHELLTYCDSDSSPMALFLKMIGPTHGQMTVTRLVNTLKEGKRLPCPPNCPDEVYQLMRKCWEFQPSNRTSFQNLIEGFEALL

Row | SMILES | IC50 [1] [nM] | IC50 [2] [nM]
1 | CN(C)[C@@H]1CC[C@H](n2cc(C(N)=O)c(Nc3ccc(Cl)c(F)c3)n2)[C@@H](C#N)C1 (single isomer, unassigned) [Example 28-38, 3-[(4-chloro-3-fluorophenyl)amino]-1-[(1S,2S,4R or 1R,2R,4S)-2-cyano-4-(dimethylamino)cyclohexyl]-1H-pyrazole-4-carboxamide] | 7 | 173
2 | N#C[C@H]1CC(NC(C2CC2)C2CC2)CC[C@@H]1n1cc(C(N)=O)c(Nc2ccc(S(=O)(=O)C(F)(F)F)cc2)n1 (single isomer, unassigned) [Example 28-164, 1-{(1S,2S,4R or 1R,2R,4S)-2-cyano-4-[(dicyclo-propylmethyl)amino]cyclohexyl}-3-({4-[(trifluoro-methyl)sulfonyl]phenyl}amino)-1H-pyrazole-4-carboxamide] | 4 | 225
3 | C[C@H](N[C@H]1CC[C@H](n2cc(C(N)=O)c(Nc3ccc(Cl)c(F)c3)n2)[C@@H](C#N)C1)C1CC1 (single isomer, unassigned) [Example 28-71, 3-[(4-chloro-3-fluorophenyl)amino]-1-[(1S,2S,4S or 1R,2R,4R)-2-cyano-4-{[(1S or 1R)-1-cyclopropylethyl]amino}cyclo-hexyl]-1H-pyrazole-4-carboxamide] | 2 | 97
4 | N#C[C@H]1CCCC[C@@H]1n1cc(C(N)=O)c(Nc2ccc(Cl)c(Cl)c2)n1 (single isomer, unassigned) [Example 17-49, 1-[(1S,2S or 1R,2R)-2-cyanocyclohexyl]-3-[(3,4-dichlorophenyl)amino]-1H-pyrazole-4-carboxamide] | 17 | 93
5 | CN[C@H]1CCC(n2cc(C(N)=O)c(Nc3ccc(F)cc3)n2)[C@@H](C#N)C1 (mixture of isomers) [Example 27-4, 1-[(1S,2S,4S and 1R,2R,4R)-2-cyano-4-(methylamino)cyclohexyl]-3-[(4-fluorophenyl)amino]-1H-pyrazole-4-carboxamide] | 1 | 56
6 | Cc1cccc(C)c1NS(=O)(=O)c1ccc(Nc2nn([C@H]3CCCC[C@@H]3C#N)cc2C(N)=O)cc1 (single isomer, unassigned) [Example 17-88, 1-[(1R,2R or 1S,2S)-2-cyanocyclohexyl]-3-({4-[(2,6-dimethylphenyl)sulfamoyl]phenyl}amino)-1H-pyrazole-4-carboxamide] | 1 | 9
7 | N#C[C@H]1CCCC[C@@H]1n1cc(C(N)=O)c(Nc2ccc(S(=O)(=O)N3CCC4(CC3)OCCO4)cc2)n1 (single isomer, unassigned) [Example 17-92, 1-[(1R,2R or 1S,2S)-2-cyanocyclohexyl]-3-{[4-(1,4-dioxa-8-azaspiro[4.5]dec-8-ylsulfonyl)phenyl]amino}-1H-pyrazole-4-carboxamide] | 0.9 | 3
8 | N#C[C@H]1CCCC[C@@H]1n1cc(C(N)=O)c(Nc2ccc(Cl)cc2)n1 (racemic) [Example 17-104, 3-[(4-chlorophenyl)amino]-1-[(1S,2S and 1R,2R)-2-cyanocyclohexyl]-1H-pyrazole-4-carboxamide] | 2 | 25
9 | CC1(O)CN([C@@H]2CC[C@H](n3cc(C(N)=O)c(Nc4ccc(C(F)(F)F)cc4)n3)[C@@H](C#N)C2)C1 (single isomer, unassigned) [Example 28-199, 1-[(1S,2S,4R or 1R,2R,4S)-2-cyano-4-(3-hydroxy-3-methylazetidin-1-yl)cyclohexyl]-3-{[4-(trifluoromethyl)phenyl]amino}-1H-pyrazole-4-carboxamide] | 0.3 | 9
10 | CC1(C)CN([C@H]2CC[C@H](n3cc(C(N)=O)c(Nc4ccccc4)n3)[C@@H](C#N)C2)C1 (single isomer, unassigned) [Example 28-138, 1-[(1S,2S,4S or 1R,2R,4R)-2-cyano-4-(3,3-dimethylazetidin-1-yl)cyclohexyl]-3-(phenylamino)-1H-pyrazole-4-carboxamide] | 0.9 | 40
11 | CN(CC1(C)COC1)[C@H]1CCC(n2cc(C(N)=O)c(Nc3ccc(Cl)cc3)n2)[C@@H](C#N)C1 (single isomer, unassigned) [Example 28-219, 3-[(4-chlorophenyl)amino]-1-[(1S,2S,4S or 1R,2R,4R)-2-cyano-4-{methyl[(3-methyloxetan-3-yl)methyl]amino}cyclohexyl]-1H-pyrazole-4-carboxamide] | 1 | 11
12 | N#C[C@H]1C[C@H](O)CC[C@@H]1n1cc(C(N)=O)c(Nc2ccc([C@H](O)C(F)(F)F)cc2)n1 (single isomer, unassigned) [Example 25-13, 1-[(1S,2S,4R or 1R,2R,4S)-2-cyano-4-hydroxycyclohexyl]-3-({4-[(1S or 1R)-2,2,2-trifluoro-1-hydroxyethyl]phenyl}amino)-1H-pyrazole-4-carboxamide] | 0.25 | 3
13 | CN(C)CC1CCC(n2cc(C(N)=O)c(Nc3ccc(F)cc3)n2)[C@H](C#N)C1 (mixture of isomers) [Example 10, 1-((1R,2R and 1S,2S)-2-Cyano-4-((dimethylamino)methyl)cyclohexyl)-3-((4-fluorophenyl)amino)-1H-pyrazole-4-carboxamide] | 11 | 357
14 | CC1(O)CN([C@H]2CC[C@H](n3cc(C(N)=O)c(Nc4ccc(C(F)(F)F)cc4)n3)[C@@H](C#N)C2)C1 (single isomer, unassigned) [Example 28-198, 1-[(1S,2S,4S or 1R,2R,4R)-2-cyano-4-(3-hydroxy-3-methylazetidin-1-yl)cyclohexyl]-3-{[4-(trifluoromethyl)phenyl]amino}-1H-pyrazole-4-carboxamide] | 0.15 | 3
15 | N#C[C@H]1CCCCC1n1cc(C(N)=O)c(Nc2ccc(-c3cn[nH]c3)nc2)n1 (mixture of isomers) [Example 21-3, 1-[(1S,2S and 1R,2R)-2-cyanocyclohexyl]-3-{[6-(1H-pyrazol-4-yl)pyridin-3-yl]amino}-1H-pyrazole-4-carboxamide] | 2 | 16
16 | N#C[C@H]1CCCC[C@@H]1n1cc(C(N)=O)c(Nc2ccc(S(=O)(=O)Nc3ccc(C(F)(F)F)cc3)cc2)n1 (single isomer, unassigned) [Example 17-95, 1-[(1R,2R or 1S,2S)-2-cyanocyclohexyl]-3-[(4-{[4-(trifluoromethyl)phenyl]sulfamoyl}phenyl)amino]-1H-pyrazole-4-carboxamide] | 6 | 31
17 | COC(=O)c1cncc(Nc2nn([C@H]3CCCC[C@@H]3C#N)cc2C(N)=O)c1 (single isomer, unassigned) [Example 17-72, methyl 5-({4-carbamoyl-1-[(1R,2R or 1S,2S)-2-cyanocyclohexyl]-1H-pyrazol-3-yl}amino)pyridine-3-carboxylate] | 12 | 89
18 | N#C[C@H]1C[C@@H](O)CC[C@@H]1n1cc(C(N)=O)c(Nc2ccc(C(F)(F)F)cc2)n1 (single isomer, unassigned) [Example 33-4, 1-[(1S,2S,4S or 1R,2R,4R)-2-cyano-4-hydroxycyclohexyl]-3-{[4-(trifluoromethyl)phenyl]amino}-1H-pyrazole-4-carboxamide] | 5 | 90
